Values quoted from earlier work, collected in paper PMC12181400, “Leveraging viral genome sequences and machine learning models for identification of potentially selective antiviral agents” (Communications Chemistry, 2025).
Where a name gives a salt, the structure may show the parent alone. Read-outs that look alike come from different tables or passages of the source.

Experiments:
Conditions in all cases: cited from earlier work
[1] = tested on: cell viability (tox21-car-agonist-p1)
[2] = tested on: cell viability (tox21-ap1-agonist-p1)
[3] = tested on: cell viability (tox21-ar-mda-kb2-luc-antagonist-p2)
[4] = tested on: cell viability (tox21-are-bla-p1)
[5] = tested on: cell viability (tox21-car-antagonist-p1)
[6] = tested on: cell viability (tox21-ar-mda-kb2-luc-agonist-p3)
[7] = curve rank −9 to 9, 0 = inactive, ref NCATS Tox21 public data browser

| Compound | tox21-car-agonist-p1-viability (curve rank) [1] | tox21-ap1-agonist-p1-viability (curve rank) [2] | tox21-ar-mda-kb2-luc-antagonist-p2-viability (curve rank) [3] | tox21-are-bla-p1-viability (curve rank) [4] | tox21-car-antagonist-p1-viability (curve rank) [5] | tox21-ar-mda-kb2-luc-agonist-p3-viability (curve rank) [6] | tox21-car-agonist-p1-viability (curve rank) [1, 7] | tox21-ap1-agonist-p1-viability (curve rank) [2, 7] | tox21-ar-mda-kb2-luc-antagonist-p2-viability (curve rank) [3, 7] | tox21-are-bla-p1-viability (curve rank) [4, 7] | tox21-car-antagonist-p1-viability (curve rank) [5, 7] | tox21-ar-mda-kb2-luc-agonist-p3-viability (curve rank) [6, 7] |
| --- | --- | --- | --- | --- | --- | --- | --- | --- | --- | --- | --- | --- |
| Clc1cccc(Cl)c1N=C1NCCN1 [Clonidine] | 0 | 0 | 0 | 0 | 0 | 0 | – | – | – | – | – | – |
| NC(=O)OCC(COC(N)=O)c1ccccc1 [Felbamate] | – | – | – | – | – | – | 0 | 0 | 0 | 0 | 0 | 0 |
| NP(N)(=O)NC(=O)c1ccc(F)cc1 [Flurofamide] | 0 | 0 | 0 | 0 | 0 | 0 | – | – | – | – | – | – |
| CN1C(C(=O)Nc2ccccn2)=C(O)c2ccccc2S1(=O)=O [Piroxicam] | 0 | 0 | 0 | 0 | 0 | 0 | – | – | – | – | – | – |
| Cc1scc2c1N(C(=O)CN1CCN(C)CC1)c1ccccc1NC2=O [Telenzepine] | 0 | 0 | 0 | 0 | 0 | 0 | – | – | – | – | – | – |
| CN1C(=O)CC[C@H]1c1cccnc1 [Cotinine] | 0 | 0 | 0 | 0 | 0 | 0 | – | – | – | – | – | – |
| CO[C@@]1(NC(=O)CSCC#N)C(=O)N2C(C(=O)O)=C(CSc3nnnn3C)CS[C@@H]21 [Cefmetazole sodium] | 0 | -0.67 | 0 | 0 | 0 | 0 | – | – | – | – | – | – |
| CC1(C)S[C@@H]2[C@H](NC(=O)Cc3ccccc3)C(=O)N2[C@H]1C(=O)O.CC1(C)S[C@@H]2[C@H](NC(=O)Cc3ccccc3)C(=O)N2[C@H]1C(=O)O.c1ccc(CNCCNCc2ccccc2)cc1 [Benzathine penicillin G] | – | – | – | – | – | – | 0 | 0 | 0 | 0 | 0 | 0 |
| O=C1c2ccccc2S(=O)(=O)N1CCCCN1CCN(c2ncccn2)CC1 [Ipsapirone] | 0 | 0 | 0 | 0 | 0 | 0 | – | – | – | – | – | – |
| NC(=O)NC(=O)Cc1ccccc1 [Phenacemide] | – | – | – | – | – | – | 0 | 0 | 0 | 0 | 0 | 0 |
| CC(Cc1ccccc1)(NC(=O)CN)c1ccccc1 (stereo not drawn) [Remacemide hydrochloride] | – | – | – | – | – | – | 0 | 0 | 0 | 0 | 0 | 0 |
| Nc1ccccc1C(=O)O [Anthranilic acid] | – | – | – | – | – | – | 0 | 0 | 0 | 0 | 0 | 0 |
| O=C(O)COc1ccccc1 [Phenoxyacetic acid] | – | – | – | – | – | – | 0 | 0 | 0 | 0 | 0 | 0 |
| Cc1cccc(C(=O)O)c1O [2-Hydroxy-3-methylbenzoic acid] | 0 | 0 | 0 | 0 | 0 | 0 | – | – | – | – | – | – |
| Oc1ccc(Cl)cc1 [4-Chlorophenol] | – | – | – | – | – | – | 0 | 0 | 0 | 0 | 0 | 0 |
| CCC1(C2=NCCN2)Cc2ccccc2O1 (stereo not drawn) [Efaroxan] | – | – | – | – | – | – | 0 | 0 | 0 | 0 | 0 | 0 |
| NS(=O)(=O)c1cc2c(cc1Cl)NC(C1CC3C=CC1C3)NS2(=O)=O (stereo not drawn) [Cyclothiazide] | – | – | – | – | – | – | 0 | 0 | 0 | 0 | 0 | 0 |
| Nc1c2c(nc3ccccc13)CCCC2O.O=C(O)/C=C\C(=O)O (stereo not drawn) [Hydroxytacrine maleate] | – | – | – | – | – | – | 0 | 0 | 0 | 0 | 0 | 0 |
| COc1ccc(C2CNC(=O)C2)cc1OC1CCCC1 (stereo not drawn) [Rolipram] | – | – | – | – | – | – | 0 | 0 | 0 | 0.67 | 0 | 0 |
| O=C1NS(=O)(=O)c2ccccc21 [Saccharin] | 0 | 0 | 0 | 0 | 0 | 0 | – | – | – | – | – | – |
| O=C(CCNNC(=O)c1ccncc1)NCc1ccccc1 [Nialamide] | 0 | 0 | 0 | 0 | 0 | 0 | – | – | – | – | – | – |
| Nc1cc(N2CCCCC2)nc(N)[n+]1[O-] [Minoxidil] | 0 | 0 | 0 | 0 | 0 | 0 | – | – | – | – | – | – |
| CC(=O)NCCCCCC(=O)O [Acexamic acid] | – | – | – | – | – | – | 0 | 0 | 0 | 0 | 0 | 0 |
| NS(=O)(=O)c1cc2c(cc1C(F)(F)F)NC(Cc1ccccc1)NS2(=O)=O (stereo not drawn) [Bendroflumethiazide] | 0 | 0 | 0 | 0 | 0 | 0 | – | – | – | – | – | – |
| CCOC(=O)[C@H](CCc1ccccc1)N[C@@H](C)C(=O)N1CCC[C@H]1C(=O)O [Enalapril maleate] | 0 | 0 | 0 | 0 | 0 | 0 | – | – | – | – | – | – |
| OC[C@H]1O[C@@H](Oc2ccc(O)cc2)[C@H](O)[C@@H](O)[C@@H]1O [Arbutin] | – | – | – | – | – | – | 0 | 0 | 0 | 0 | 0 | 0 |
| O=C1NCC2(CCN(CCc3ccccc3)CC2)O1 [Fenspiride hydrochloride] | – | – | – | – | – | – | 0 | 0 | 0 | 0 | 0 | 0 |
| CN(C(=O)c1c(O)c2ccccc2n(C)c1=O)c1ccccc1 [Roquinimex] | 0 | 0 | 0 | 0 | 0 | 0 | – | – | – | – | – | – |
